Values quoted from earlier work, collected in article PMC10816276 (International Journal of Molecular Sciences, 2024).

Molecular target: T1, Mushroom tyrosinase (mTyr) (Agaricus bisporus, UniProt C7FF04)
T1 construct: purchased Sigma-Aldrich
Conditions: substrate L-DOPA; cited from earlier work

T1 sequence (C7FF04 1-392): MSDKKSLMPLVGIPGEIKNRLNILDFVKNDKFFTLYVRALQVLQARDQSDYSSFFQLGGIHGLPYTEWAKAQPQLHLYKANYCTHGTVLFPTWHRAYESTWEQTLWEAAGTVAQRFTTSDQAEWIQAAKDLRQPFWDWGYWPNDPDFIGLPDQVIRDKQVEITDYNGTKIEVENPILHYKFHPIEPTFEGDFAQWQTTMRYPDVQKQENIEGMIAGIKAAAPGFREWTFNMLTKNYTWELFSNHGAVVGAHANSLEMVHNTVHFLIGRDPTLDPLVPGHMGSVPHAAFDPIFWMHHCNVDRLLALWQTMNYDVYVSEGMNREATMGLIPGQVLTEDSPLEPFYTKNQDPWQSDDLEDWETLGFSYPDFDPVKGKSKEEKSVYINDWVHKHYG

## OC[C@H]1O[C@@H](Oc2ccc(O)cc2)[C@H](O)[C@@H](O)[C@@H]1O [beta-arbutin, reference compound]
  inhibitory effect on the diphenolase activity of mTyr: no inhibitory effect
